From US20230265104A1, “NOVEL HETEROCYCLIC COMPOUNDS” (PRISM BIOLAB CO., LTD., priority 2020, published 2023)

System: PANC-1 (human pancreatic cancer-derived cell line)
Assay: MTS assay on Panc-1 (human pancreas carcinoma cell line)
Type: cell-based
Settings: 144 h; for IC50: PANC-1, MTS method, cell survival 6 days after exposure, 4-parameter logistic fit; for inhibition at 10 µM: read-out: Growth inhibition (%) 10 μM; for inhibition at 0.3125 µM: read-out: Growth inhibition (%) 0.3125 μM; for inhibition at 0.15625 µM: read-out: Growth inhibition (%) 0.15625 μM; for inhibition at 30 µM: read-out: Growth inhibition (%) 30 μM
Description: Experimental Example: MTS Assay on Panc-1 (Human Pancreas Carcinoma Cell Line) cell line name: PANC-1 derived from: human pancreas glandular cancer purchased from: ATCC product code: CRL-1469 proliferation medium: D-MEM+10% FBS culture environment: 37° C., 5% CO2 seeding density: 5.0×10^5 cells/25 cm^2 solvent control substance: DMSO (HYBRI-MAX®, Sigma-Aldrich Corp.) test substance: Example compound (ID-1-ID-13) A DMSO solution of the test substance was prepared by serially diluting (common ratio 2) each test substance with DMSO.
A solvent control substance sample and a test substance sample were exposed to a human pancreatic cancer-derived cell line (PANC-1), and the survival rate of the cell 6 days later was measured by the MTS method. The measurement was performed 3 times and the average thereof was adopted. The survival rate of the cell in each test substance sample was calculated by the following formula 1 with the value at exposure of the solvent control substance sample as 100% survival rate. […]
survival rate (%)=100×absorbance of each test substance sample/absorbance of solvent control substance sample formula 1 Normalized values calculated by the following formula 2 from the absorbances of each sample at 492 nm and 630 nm and the absorbances of the blank were used as the absorbances in the above-mentioned formula 1. […]
normalized value (ABS492 nm-630 nm)=(ABSsa 492 nm-ABSsa 630 nm)−(ABSbl 492 nm-ABSbl 630 nm) ABSsa 492: absorbance of each sample at wavelength 492 nm ABSsa 630: absorbance of each sample at wavelength 630 nm ABSbl 492: absorbance of blank corresponding to each sample at wavelength 492 nm ABSbl 630: absorbance of blank corresponding to each sample at wavelength 630 nm formula 2 […]
The analysis was performed by using nplr package on R (The R Foundation for Statistical Computing) and estimating the logistic regression curve (4-parameter).

SMILES	IC50	inhibition at 0.3125 µM (PANC-1, MTS, 6 days)	further results
CC(C)C[C@H]1ON(C(=O)/C=C/c2ncco2)[C@H]2CN(C3CCN(C)CC3)C(=O)[C@H](CC(C)C)N2C1=O [ID-53, (3R,6S,9aS)-3,6-diisobutyl-8-(1-methylpiperidin-4-yl)-1-((E)-3-(oxazol-2-yl)acryloyl)tetrahydropyrazino[2,1-c] [1,2,4]oxadiazine-4,7(3H,6H)-dione]	1200 nM	–	inhibition at 10 µM (PANC-1, MTS, 6 days): 100%
CC(C)C[C@H]1ON(C(=O)/C=C/c2nc3ccccc3s2)[C@H]2CN(C3CCN(C(C)C)CC3)C(=O)[C@H](CC(C)(C)C)N2C1=O [ID-73, (3R,6S,9aS)-1-((E)-3-(benzo[d]thiazol-2-yl)acryloyl)-3-isobutyl-8-(1-isopropylpiperidin-4-yl)-6-neopentyltetrahydropyrazino[2,1-c][1,2,4]oxadiazine-4,7(3H,6H)-dione]	140 nM	88.1%	–
C#Cc1csc(/C=C/C(=O)N2O[C@H](CC(C)C)C(=O)N3[C@@H]2CN([C@H]2CCN(CCCCO)C2)C(=O)[C@@H]3CC(C)(C)C)n1 [ID-81, (3R,6S,9aS)-1-((E)-3-(4-ethynylthiazol-2-yl)acryloyl)-8-((S)-1-(4-hydroxybutyl)pyrrolidin-3-yl)-3-isobutyl-6-neopentyltetrahydropyrazino[2,1-c][1,2,4]oxadiazine-4,7(3H,6H)-dione]	–	69.6%	–
CC(C)C[C@H]1ON(C(=O)/C=C/c2nc3ccccc3s2)[C@H]2CN(C3CCN(CCCO)CC3)C(=O)[C@H](CC(C)(C)C)N2C1=O [ID-79, (3R,6S,9aS)-1-((E)-3-(benzo[d]thiazol-2-yl)acryloyl)-8-(1-(3-hydroxypropyl)piperidin-4-yl)-3-isobutyl-6-neopentyltetrahydropyrazino[2,1-c][1,2,4]oxadiazine-4,7(3H,6H)-dione]	–	72.2%	–
C#Cc1cnc(/C=C/C(=O)N2O[C@H](CC(C)C)C(=O)N3[C@@H]2CN([C@H]2CCN(CCCCO)C2)C(=O)[C@@H]3CC(C)(C)C)s1 [ID-89, (3R,6S,9aS)-1-((E)-3-(5-ethynylthiazol-2-yl)acryloyl)-8-((S)-1-(4-hydroxybutyl)pyrrolidin-3-yl)-3-isobutyl-6-neopentyltetrahydropyrazino[2,1-c][1,2,4]oxadiazine-4,7(3H,6H)-dione]	180 nM	100%	–
CC(C)C[C@H]1ON(C(=O)/C=C/c2ccccn2)[C@H]2CN(CCC(N)=O)C(=O)[C@H](CC(C)C)N2C1=O [ID-14, 3-((3R,6S,9aS)-3,6-diisobutyl-4,7-dioxo-1-((E)-3-(pyridin-2-yl)acryloyl)hexahydropyrazino[2,1-c][1,2,4]oxadiazin-8 (1H)-yl)propanamide]	17800 nM	–	–
CC(C)(C)C[C@H]1C(=O)N([C@@H]2CCN(CCCCO)C2)C[C@@H]2N(C(=O)/C=C/c3cnc4ccccc4n3)O[C@H](CC3CCCCC3)C(=O)N21 [ID-90, (3R, 6S, 9aS)-3-(cyclohexylmethyl)-8-((R)-1-(4-hydroxybutyl)pyrrolidin-3-yl)-6-neopentyl-1-((E)-3-(quinoxalin-2-yl)acryloyl)tetrahydropyrazino[2,1-c][1,2,4]oxadiazine-4,7(3H,6H)-dione]	210 nM	66%	inhibition at 1 µM (PANC-1, MTS, 6 days, 1 μM, read-out: Growth inhibition (%) 1 μM): 99%
CC(C)C[C@H]1ON(C(=O)/C=C/c2ccccc2)[C@H]2CN(C3CCN(C)CC3)C(=O)[C@H](CC(C)C)N2C1=O [ID-39, (3R,6S,9aS)-1-cinnamoyl-3,6-diisobutyl-8-(1-methylpiperidin-4-yl)tetrahydropyrazino[2,1-c][1,2,4]oxadiazine-4,7 (3H, 6H)-dione]	8900 nM	–	inhibition at 10 µM (PANC-1, MTS, 6 days): 80.8%
C#Cc1sc(/C=C/C(=O)N2O[C@H](CC(C)C)C(=O)N3[C@@H]2CN(C2CCN(C(C)C)CC2)C(=O)[C@@H]3CC(C)(C)C)nc1C#CCCCO [ID-100, (3R,6S,9aS)-1-((E)-3-(5-ethynyl-4-(5-hydroxypent-1-yn-1-yl)thiazol-2-yl)acryloyl)-3-isobutyl-8-(1-isopropylpiperidin-4-yl)-6-neopentyltetrahydropyrazino[2,1-c][1,2,4]oxadiazine-4,7(3H,6H)-dione]	–	–	inhibition at 0.15625 µM (PANC-1, MTS, 6 days): 99.8%
CC(C)C[C@H]1ON(C(=O)/C=C/c2nc3cccnc3s2)[C@H]2CN(CCC(N)=O)C(=O)[C@H](CC(C)C)N2C1=O [ID-32, 3-((3R,6S,9aS)-3,6-diisobutyl-4,7-dioxo-1-((E)-3-(thiazolo[5,4-b]pyridin-2-yl)acryloyl)hexahydropyrazino[2,1-c][1,2,4]oxadiazin-8(1H)-yl)propanamide]	620 nM	–	inhibition at 10 µM (PANC-1, MTS, 6 days): 101%
CC(C)C[C@H]1ON(C(=O)/C=C/c2nc3cc(O)ccc3s2)[C@H]2CN(C3CN(CCCCO)C3)C(=O)[C@H](CC(C)(C)C)N2C1=O [ID-8, (3R,6S,9aS)-1-((E)-3-(5-hydroxybenzo[d]thiazol-2-yl)acryloyl)-8-(1-(4-hydroxybutyl)azetidin-3-yl)-3-isobutyl-6-neopentyltetrahydropyrazino[2,1-c][1,2,4]oxadiazine-4,7(3H,6H)-dione]	63 nM	–	–
CC(C)C[C@H]1ON(C(=O)/C=C/c2nc3c(O)cccc3s2)[C@H]2CN([C@H]3CCN(CCCCO)C3)C(=O)[C@H](CC(C)(C)C)N2C1=O [ID-85, (3R,6S,9aS)-1-((E)-3-(4-hydroxybenzo[d]thiazol-2-yl)acryloyl)-8-((S)-1-(4-hydroxybutyl)pyrrolidin-3-yl)-3-isobutyl-6-neopentyltetrahydropyrazino[2,1-c][1,2,4]oxadiazine-4,7(3H,6H)-dione]	110 nM	–	inhibition at 0.15625 µM (PANC-1, MTS, 6 days): 58.9%
CC(C)C[C@H]1ON(C(=O)/C=C/c2ccc(C(F)(F)F)cn2)[C@H]2CN(C3CCN(C)CC3)C(=O)[C@H](CC(C)C)N2C1=O [ID-71, (3R,6S,9aS)-3,6-diisobutyl-8-(1-methylpiperidin-4-yl)-1-((E)-3-(5-(trifluoromethyl)pyridin-2-yl)acryloyl)tetrahydropyrazino[2,1-c][1,2,4]oxadiazine-4,7(3H,6H)-dione]	–	–	inhibition at 2.5 µM (PANC-1, MTS, 6 days, 2.5 μM, read-out: Growth inhibition (%) 2.5 μM): 97.3%
CC(C)C[C@H]1ON(C(=O)/C=C/c2nc3ccccc3s2)[C@H]2CN(C3CCN(CCC(CO)CO)CC3)C(=O)[C@H](CC(C)(C)C)N2C1=O [ID-83, (3R,6S,9aS)-1-((E)-3-(benzo[d]thiazol-2-yl)acryloyl)-8-(1-(4-hydroxy-3-(hydroxymethyl)butyl)piperidin-4-yl)-3-isobutyl-6-neopentyltetrahydropyrazino[2,1-c][1,2,4]oxadiazine-4,7(3H,6H)-dione]	–	46.5%	–
CC(C)C[C@H]1ON(C(=O)/C=C/c2nc3ccccc3s2)[C@H]2CN([C@@H]3CCN(CCCCO)C3)C(=O)[C@H](CC(C)(C)C)N2C1=O [ID-6, (3R,6S,9aS)-1-((E)-3-(benzo[d]thiazol-2-yl)acryloyl)-8-((R)-1-(4-hydroxybutyl)pyrrolidin-3-yl)-3-isobutyl-6-neopentyltetrahydropyrazino[2,1-c][1,2,4]oxadiazine-4,7(3H,6H)-dione]	130 nM	–	–
CC(C)C[C@H]1ON(C(=O)/C=C/c2ccccn2)[C@H]2CN(CCC(=O)Nc3nccs3)C(=O)[C@H](CC(C)C)N2C1=O [ID-27, 3-((3R,6S,9aS)-3,6-diisobutyl-4,7-dioxo-1-((E)-3-(pyridin-2-yl)acryloyl)hexahydropyrazino[2,1-c][1,2,4]oxadiazin-8 (1H)-yl)—N-(thiazol-2-yl)propanamide]	8600 nM	–	inhibition at 30 µM (PANC-1, MTS, 6 days): 99.3%
CONC(=O)CCN1C[C@@H]2N(C(=O)/C=C/c3ccccn3)O[C@H](CC(C)C)C(=O)N2[C@@H](CC(C)C)C1=O [ID-28, 3-((3R,6S,9aS)-3,6-diisobutyl-4,7-dioxo-1-((E)-3-(pyridin-2-yl)acryloyl)hexahydropyrazino[2,1-c][1,2,4]oxadiazin-8(1H)-yl)—N-methoxypropanamide]	16200 nM	–	inhibition at 30 µM (PANC-1, MTS, 6 days): 96.2%
CC(C)C[C@H]1ON(C(=O)/C=C/c2ccccn2)[C@H]2CN(C3CCN(C(=O)c4ccccc4)CC3)C(=O)[C@H](CC(C)C)N2C1=O [ID-15, (3R,6S,9aS)-8-(1-benzoylpiperidin-4-yl)-3,6-diisobutyl-1-((E)-3-(pyridin-2-yl)acryloyl)tetrahydropyrazino[2,1-c][1,2,4]oxadiazine-4,7(3H,6H)-dione]	5800 nM	–	inhibition at 30 µM (PANC-1, MTS, 6 days): 99.9%
CC(C)C[C@H]1ON(C(=O)/C=C/c2ccccn2)[C@H]2CN(C3CCC(N(C)C)CC3)C(=O)[C@H](CC(C)C)N2C1=O (stereo partly drawn) [ID-69, (3R,6S,9aS)-8-(4-(dimethylamino)cyclohexyl)-3,6-diisobutyl-1-((E)-3-(pyridin-2-yl)acryloyl)tetrahydropyrazino[2,1-c][1,2,4]oxadiazine-4,7(3H,6H)-dione]	2800 nM	–	–
